Results on eight molecules are retold here after ChEMBL document CHEMBL3044899, “Effect of chloro and fluoro groups on the antimicrobial activity of 2,5-disubstituted 4-thiazolidinones: a comparative study” (2012).

Calls of active or inactive are those of the source. No cut-off for these calls is given here.

Experiment [1] concerns Pseudomonas aeruginosa. The experiment in a line: Antibacterial activity against Pseudomonas aeruginosa MTCC 2453 at 100 ug/ml by cup-plate method. Type of experiment: functional. Particulars: read-out: DIZ.
The test system of experiment [2] is Bacillus subtilis. Briefly: Antibacterial activity against Bacillus subtilis MTCC 121 by cup plate method. Type of experiment: functional, organism-based.
The test system of experiment [3] is Pseudomonas aeruginosa. The experiment in a line: Antibacterial activity against Pseudomonas aeruginosa MTCC 2453 at 200 ug/ml by cup-plate method. Type of experiment: functional. The conditions noted are these: read-out: DIZ.
Experiment [4] deals with Staphylococcus aureus. Briefly: Antibacterial activity against Staphylococcus aureus MTCC 96 at 100 ug/ml by cup-plate method. Type of experiment: functional. The conditions noted are these: read-out: DIZ.
Experiment [5] concerns Bacillus subtilis. The experiment in a line: Antibacterial activity against Bacillus subtilis MTCC 121 at 300 ug/ml by cup plate method. Type of experiment: functional. Particulars: read-out: DIZ.
Experiment [6] deals with Pseudomonas aeruginosa. Briefly: Antibacterial activity against Pseudomonas aeruginosa MTCC 2453 at 50 ug/ml by cup-plate method. It counts as functional. The conditions noted are these: read-out: DIZ.
The test system of experiment [7] is Staphylococcus aureus. The experiment in a line: Antibacterial activity against Staphylococcus aureus MTCC 96 at 200 ug/ml by cup-plate method. Particulars: read-out: DIZ. Type of experiment: functional.
The subject of experiment [8] is Pseudomonas aeruginosa. The experiment in a line: Antibacterial activity against Pseudomonas aeruginosa MTCC 2453 by cup-plate method. It counts as functional, organism-based.
Experiment [9] deals with Pseudomonas aeruginosa. The experiment in a line: Antibacterial activity against Pseudomonas aeruginosa MTCC 2453 at 300 ug/ml by cup-plate method. It counts as functional. Particulars: read-out: DIZ.
Experiment [10] deals with Escherichia coli. Briefly: Antibacterial activity against Escherichia coli MTCC 739 at 100 ug/ml by cup-plate method. Type of experiment: functional. The conditions noted are these: read-out: DIZ.
Experiment [11] concerns Escherichia coli. Briefly: Antibacterial activity against Escherichia coli MTCC 739 at 200 ug/ml by cup-plate method. It counts as functional. Particulars: read-out: DIZ.
The subject of experiment [12] is Escherichia coli. Briefly: Antibacterial activity against Escherichia coli MTCC 739 at 50 ug/ml by cup-plate method. It counts as functional. Particulars: read-out: DIZ.
Experiment [13] concerns Staphylococcus aureus. The experiment in a line: Antibacterial activity against Staphylococcus aureus MTCC 96 at 50 ug/ml by cup-plate method. It counts as functional. Particulars: read-out: DIZ.
For experiment [14], the system named is Bacillus subtilis. The experiment in a line: Antibacterial activity against Bacillus subtilis MTCC 121 at 50 ug/ml by cup plate method. It counts as functional. Particulars: read-out: DIZ.
Experiment [15] has as its system Staphylococcus aureus. Briefly: Antibacterial activity against Staphylococcus aureus MTCC 96 by cup-plate method. It counts as functional, organism-based.
Experiment [16] relates to Bacillus subtilis. Briefly: Antibacterial activity against Bacillus subtilis MTCC 121 at 100 ug/ml by cup plate method. It counts as functional. The conditions noted are these: read-out: DIZ.
In a further experiment the test system is Candida albicans. Briefly: Antifungal activity against Candida albicans MTCC 227 at 50 to 300 ug/ml by cup-plate method. Type of experiment: functional, organism-based.
For experiment [17], the system named is Escherichia coli. The experiment in a line: Antibacterial activity against Escherichia coli MTCC 739 at 300 ug/ml by cup-plate method. It counts as functional. The conditions noted are these: read-out: DIZ.
Experiment [18] concerns Staphylococcus aureus. The experiment in a line: Antibacterial activity against Staphylococcus aureus MTCC 96 at 300 ug/ml by cup-plate method. Type of experiment: functional. The conditions noted are these: read-out: DIZ.
The test system of experiment [19] is Escherichia coli. Briefly: Antibacterial activity against Escherichia coli MTCC 739 by cup-plate method. Type of experiment: functional, organism-based.
The subject of experiment [20] is Bacillus subtilis. Briefly: Antibacterial activity against Bacillus subtilis MTCC 121 at 200 ug/ml by cup plate method. It counts as functional. Particulars: read-out: DIZ.

Consider `COc1cc(/C=C2\S/C(=N/c3ccc(F)c(Cl)c3)NC2=O)ccc1O`, for which the zone of inhibition at 100 µg/mL stood at 9 mm with Pseudomonas aeruginosa [1], 8 mm in the experiment on Staphylococcus aureus [4], 8 mm with Escherichia coli [10] and 8 mm with Bacillus subtilis [16]. Also, the Activity result in the experiment on Bacillus subtilis [2], in the experiment on Pseudomonas aeruginosa [8], with Staphylococcus aureus [15] and in the experiment on Escherichia coli [19] was “Dose-dependent effect” throughout. Further, the zone of inhibition at 200 µg/mL in the experiment with Pseudomonas aeruginosa [3] came to 10 mm; with Staphylococcus aureus [7], 9 mm; in the experiment with Escherichia coli [11] it was 8 mm; with Bacillus subtilis [20], 8 mm. In addition, the zone of inhibition at 300 µg/mL with Bacillus subtilis [5] was 10 mm; in the experiment on Pseudomonas aeruginosa [9] it was 10 mm; in the experiment with Escherichia coli [17] it was 9 mm; in the experiment with Staphylococcus aureus [18], 11 mm. Also, the zone of inhibition at 50 µg/mL with Pseudomonas aeruginosa [6], with Escherichia coli [12], with Staphylococcus aureus [13] and in the experiment with Bacillus subtilis [14] was 7 mm each time. For the same molecule, the outcome with Candida albicans was inactive.

Take `O=C1N/C(=N\c2cccc(Cl)c2)S/C1=C\c1ccccc1Cl`: the zone of inhibition at 100 µg/mL in the experiment with Pseudomonas aeruginosa [1] was determined as 7 mm; with Staphylococcus aureus [4], 8 mm; in the experiment on Escherichia coli [10], 7 mm; with Bacillus subtilis [16], 8 mm. Also, the Activity result in the experiment with Bacillus subtilis [2], in the experiment on Pseudomonas aeruginosa [8], in the experiment with Staphylococcus aureus [15] and in the experiment on Escherichia coli [19] was “Dose-dependent effect” throughout. For the same molecule, the zone of inhibition at 200 µg/mL with Pseudomonas aeruginosa [3] was 7 mm; with Staphylococcus aureus [7], 8 mm; in the experiment with Escherichia coli [11], 8 mm; in the experiment with Bacillus subtilis [20], 8 mm. The zone of inhibition at 300 µg/mL with Bacillus subtilis [5] turned out to be 9 mm; in the experiment on Pseudomonas aeruginosa [9] it was 8 mm; in the experiment with Escherichia coli [17], 8 mm; with Staphylococcus aureus [18] it was 9 mm. The zone of inhibition at 50 µg/mL amounted to 6 mm in the experiment on Pseudomonas aeruginosa [6], 7 mm with Escherichia coli [12], 7 mm in the experiment on Staphylococcus aureus [13] and 7 mm with Bacillus subtilis [14]. For the same molecule, the outcome in the experiment with Candida albicans was inactive.

For the molecule `O=C1N/C(=N\c2ccc(F)c(Cl)c2)S/C1=C\c1ccccc1[N+](=O)[O-]`, the zone of inhibition at 100 µg/mL is 9 mm with Pseudomonas aeruginosa [1], 12 mm in the experiment on Staphylococcus aureus [4], 9 mm with Escherichia coli [10] and 12 mm in the experiment with Bacillus subtilis [16]. Moreover, the Activity entry in the experiment on Bacillus subtilis [2], with Pseudomonas aeruginosa [8], in the experiment with Staphylococcus aureus [15] and with Escherichia coli [19] was “Dose-dependent effect” in each case. The zone of inhibition at 200 µg/mL came out at 10 mm with Pseudomonas aeruginosa [3], 13 mm in the experiment on Staphylococcus aureus [7], 11 mm with Escherichia coli [11] and 13 mm in the experiment on Bacillus subtilis [20]. Besides, the zone of inhibition at 300 µg/mL with Bacillus subtilis [5] amounted to 13 mm; with Pseudomonas aeruginosa [9], 11 mm; with Escherichia coli [17] it was 12 mm; in the experiment with Staphylococcus aureus [18] it was 14 mm. Also, the zone of inhibition at 50 µg/mL in the experiment with Pseudomonas aeruginosa [6] came to 8 mm; with Escherichia coli [12], 8 mm; in the experiment with Staphylococcus aureus [13], 10 mm; in the experiment on Bacillus subtilis [14], 10 mm. For the same molecule, the result in the experiment with Candida albicans was inactive.

With `O=C1N/C(=N\c2ccc(F)c(Cl)c2)S/C1=C\c1ccccc1Cl`, the zone of inhibition at 100 µg/mL in the experiment with Pseudomonas aeruginosa [1] worked out at 10 mm; in the experiment with Staphylococcus aureus [4], 11 mm; with Escherichia coli [10] it was 8 mm; in the experiment on Bacillus subtilis [16], 12 mm. In addition, the Activity entry in the experiment on Bacillus subtilis [2], in the experiment with Pseudomonas aeruginosa [8], in the experiment with Staphylococcus aureus [15] and with Escherichia coli [19] was “Dose-dependent effect” throughout. In addition, the zone of inhibition at 200 µg/mL in the experiment with Pseudomonas aeruginosa [3] came out at 12 mm; in the experiment on Staphylococcus aureus [7], 12 mm; with Escherichia coli [11] it was 9 mm; with Bacillus subtilis [20] it was 14 mm. Also, the zone of inhibition at 300 µg/mL in the experiment with Bacillus subtilis [5] was 14 mm; with Pseudomonas aeruginosa [9], 12 mm; with Escherichia coli [17] it was 10 mm; in the experiment on Staphylococcus aureus [18] it was 14 mm. The zone of inhibition at 50 µg/mL with Pseudomonas aeruginosa [6] came out at 10 mm; in the experiment with Escherichia coli [12], 8 mm; in the experiment on Staphylococcus aureus [13], 10 mm; in the experiment with Bacillus subtilis [14] it was 10 mm. Also, the result in the experiment on Candida albicans was inactive.

With `O=C1N/C(=N\c2ccc(Cl)cc2)S/C1=C\c1ccccc1`, the zone of inhibition at 100 µg/mL in the experiment on Pseudomonas aeruginosa [1], in the experiment on Staphylococcus aureus [4], in the experiment on Escherichia coli [10] and in the experiment with Bacillus subtilis [16] was 8 mm in each case. Further, the Activity result with Bacillus subtilis [2], in the experiment on Pseudomonas aeruginosa [8], in the experiment on Staphylococcus aureus [15] and with Escherichia coli [19] was “Dose-dependent effect” each time. Besides, the zone of inhibition at 200 µg/mL with Pseudomonas aeruginosa [3] was 8 mm; with Staphylococcus aureus [7] it was 9 mm; with Escherichia coli [11], 10 mm; in the experiment on Bacillus subtilis [20] it was 9 mm. The zone of inhibition at 300 µg/mL amounted to 10 mm in the experiment with Bacillus subtilis [5], 11 mm in the experiment on Pseudomonas aeruginosa [9], 12 mm in the experiment on Escherichia coli [17] and 10 mm in the experiment with Staphylococcus aureus [18]. Besides, the zone of inhibition at 50 µg/mL with Pseudomonas aeruginosa [6] was 8 mm; in the experiment with Escherichia coli [12], 7 mm; in the experiment with Staphylococcus aureus [13], 5 mm; with Bacillus subtilis [14], 5 mm. Also, the outcome with Candida albicans was inactive.

With `O=C1N/C(=N\c2ccc(Cl)cc2)S/C1=C\c1cccc([N+](=O)[O-])c1`, the zone of inhibition at 100 µg/mL in the experiment with Pseudomonas aeruginosa [1] is 9 mm; with Staphylococcus aureus [4], 9 mm; in the experiment on Escherichia coli [10] it was 8 mm; with Bacillus subtilis [16] it was 10 mm. For the same molecule, the Activity result with Bacillus subtilis [2], with Pseudomonas aeruginosa [8], in the experiment on Staphylococcus aureus [15] and with Escherichia coli [19] was “Dose-dependent effect” each time. Further, the zone of inhibition at 200 µg/mL worked out at 9 mm in the experiment with Pseudomonas aeruginosa [3], 9 mm with Staphylococcus aureus [7], 9 mm with Escherichia coli [11] and 10 mm with Bacillus subtilis [20]. Further, the zone of inhibition at 300 µg/mL in the experiment on Bacillus subtilis [5] amounted to 11 mm; in the experiment on Pseudomonas aeruginosa [9], 11 mm; in the experiment on Escherichia coli [17] it was 10 mm; in the experiment on Staphylococcus aureus [18] it was 10 mm. For the same molecule, the zone of inhibition at 50 µg/mL with Pseudomonas aeruginosa [6] is 8 mm; in the experiment with Escherichia coli [12] it was 7 mm; in the experiment with Staphylococcus aureus [13], 8 mm; in the experiment with Bacillus subtilis [14] it was 9 mm. Further, in the experiment with Candida albicans, the outcome was inactive.

For the molecule `O=C1N/C(=N\c2cccc(Cl)c2)S/C1=C\c1ccc(Cl)cc1`, the zone of inhibition at 100 µg/mL is 8 mm in the experiment on Pseudomonas aeruginosa [1], 8 mm in the experiment on Staphylococcus aureus [4], 9 mm in the experiment on Escherichia coli [10] and 8 mm with Bacillus subtilis [16]. The Activity entry in the experiment with Bacillus subtilis [2], in the experiment with Pseudomonas aeruginosa [8], in the experiment on Staphylococcus aureus [15] and with Escherichia coli [19] was “Dose-dependent effect” each time. Also, the zone of inhibition at 200 µg/mL with Pseudomonas aeruginosa [3] stood at 8 mm; in the experiment with Staphylococcus aureus [7], 9 mm; in the experiment with Escherichia coli [11], 9 mm; in the experiment on Bacillus subtilis [20], 10 mm. For the same molecule, the zone of inhibition at 300 µg/mL in the experiment on Bacillus subtilis [5] is 10 mm; in the experiment on Pseudomonas aeruginosa [9], 8 mm; with Escherichia coli [17], 9 mm; in the experiment on Staphylococcus aureus [18] it was 10 mm. Besides, the zone of inhibition at 50 µg/mL in the experiment on Pseudomonas aeruginosa [6], with Escherichia coli [12], in the experiment on Staphylococcus aureus [13] and with Bacillus subtilis [14] was 7 mm in each case. In the experiment on Candida albicans, the outcome was inactive.

Take `O=C(O)c1cn(C2CC2)c2cc(N3CCNCC3)c(F)cc2c1=O` [CIPROFLOXACIN]: the zone of inhibition at 100 µg/mL with Pseudomonas aeruginosa [1] came to 15 mm; in the experiment on Staphylococcus aureus [4] it was 14 mm; in the experiment with Bacillus subtilis [16], 15 mm.
